Read-outs that look alike come from different tables or passages of the source.
What was measured:
[1] = target: T1, p38α (Homo sapiens, UniProt Q16539); test: p38 MAP Kinase assay, ATF2 phosphorylation (ELISA); assay type: biochemical; details: 40 μM ATP
T1 construct: p38 MAP Kinases are recombinant human full-length proteins with an amino-terminal GST fusion; GST (N); purchased Upstate (Charlottesville, Va.); host or cells: E. coli
Procedure, shortened: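 ATF2 Thr69 phosphorylation was quantified by ELISA (HRP/TMB, 450 nm) after EDTA termination. Reactions: 6 ng GST-fused full-length human p38α, 15 min compound pre-incubation at room temperature, then 30 min at 37° C with 40 μM ATP and 1.25 μM GST-ATF2 (aa 19-96), pH 7.5 HEPES buffer.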

[2] = system: TNFα release from THP-1 cells; test: TNFα release from LPS-stimulated THP-1 cells; assay type: cell-based; details: LPS 10 μg/ml, 18 hours, read-out: TNFα (THP-1) IC50
Procedure, shortened: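 THP-1 cells (10^6 cells/ml on resuspension) preincubated with compound 30 min at 37°C, 5% CO2, final DMSO ≤0.5%, then stimulated with 10 μg/ml LPS for 18 h (TNFα). Supernatants collected for TNFα analysis.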

T1 sequence (Q16539 whole entry, the tested form may be a part): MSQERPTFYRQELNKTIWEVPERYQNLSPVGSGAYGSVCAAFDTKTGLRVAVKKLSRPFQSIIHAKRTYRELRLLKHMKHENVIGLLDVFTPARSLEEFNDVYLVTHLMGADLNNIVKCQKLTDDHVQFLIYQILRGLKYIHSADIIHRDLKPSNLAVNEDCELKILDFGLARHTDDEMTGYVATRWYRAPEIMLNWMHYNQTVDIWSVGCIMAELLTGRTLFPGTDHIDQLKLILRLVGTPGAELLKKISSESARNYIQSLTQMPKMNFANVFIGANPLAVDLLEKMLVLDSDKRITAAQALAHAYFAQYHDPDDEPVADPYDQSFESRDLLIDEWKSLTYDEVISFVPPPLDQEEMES

SMILES	IC50 [1]	IC50 ([2]; Homo sapiens, THP-1, 18 h)	melting point	IC50 [2]
CS(=O)(=O)c1nccc(-c2c(-c3ccc(F)cc3)nc3sccn23)n1 [CXL, 6-(4-fluorophenyl)-5-(2-methanesulfonyl-pyrimidin-4-yl)-imidazo[2,1-b]thiazole]	966 nM	4860 nM	197 to 198 °C	
CC[C@H](C)[C@@H](CO)Nc1nccc(-c2c(-c3ccc(F)cc3)nc3occn23)n1 [LXIV]	174 nM	13.2 nM		
O[C@H]1CCCC[C@@H]1Nc1nccc(-c2c(-c3ccc(F)cc3)nc3occn23)n1 [LXIX]	83.3 nM	11.4 nM		
C[C@@H](Nc1nccc(-c2c(-c3ccc(F)cc3)nc3occn23)n1)[C@@H](O)c1ccccc1 [LXVIII]	79.1 nM	140 nM		
Fc1ccc(-c2nc3occn3c2-c2ccnc(NCCN3CCOCC3)n2)cc1 [LXVI]	75.9 nM	193 nM		
CCCC[C@@H](CO)Nc1nccc(-c2c(-c3ccc(F)cc3)nc3occn23)n1 [LXV]	86.6 nM	26.3 nM		
Fc1ccc(-c2nc3occn3c2-c2ccnc(NCc3ccncc3)n2)cc1 [LXXIII]	234 nM	96.6 nM		
COc1ccc(CNc2nccc(-c3c(-c4ccc(F)cc4)nc4occn34)n2)cc1OC [LXXIV]	72.8 nM	519 nM		
COc1cccc(CNc2nccc(-c3c(-c4ccc(F)cc4)nc4occn34)n2)c1OC [LXXIX]	342 nM	58.4 nM		
OCCN(CCO)CCNc1nccc(-c2c(-c3ccc(F)cc3)nc3occn23)n1 [LXXVIII]	370 nM	318 nM		
OC[C@@H](Nc1nccc(-c2c(-c3ccc(F)cc3)nc3occn23)n1)[C@H](O)c1ccccc1 [LXXXIII]	185 nM	346 nM		
CC(CO)(CO)Nc1nccc(-c2c(-c3ccc(F)cc3)nc3occn23)n1 [LXXXII]	184 nM	50.5 nM		
NCCNc1nccc(-c2c(-c3ccc(F)cc3)nc3occn23)n1 [LXXXIX]	253 nM	599 nM		
CS(=O)(=O)c1ccc(CNc2nccc(-c3c(-c4ccc(F)cc4)nc4occn34)n2)cc1 [LXXXI]	1230 nM	1230 nM		
Fc1ccc(-c2nc3occn3c2-c2ccnc(NCC3CCCNC3)n2)cc1 (centres unmarked) [LXXXVIII]	39.9 nM	87 nM		
OCC(CO)(CO)Nc1nccc(-c2c(-c3ccc(F)cc3)nc3occn23)n1 [LXXXVI]	227 nM	150 nM		
Fc1ccc(-c2nc3occn3c2-c2ccnc(NCc3cccnc3)n2)cc1 [LXXXV]	66.3 nM	39.3 nM		
Oc1ccc(C(O)CNc2nccc(-c3c(-c4ccc(F)cc4)nc4occn34)n2)cc1 (centres unmarked) [LXXX]	82.5 nM	88.4 nM		

SMILES	IC50 [1]	IC50 ([2]; Homo sapiens, THP-1, 18 h)	melting point	IC50 [2]
CC(C)C[C@H](CO)Nc1nccc(-c2c(-c3ccc(F)cc3)nc3occn23)n1 [L]	86.6 nM	125 nM		
CSc1nccc(-c2c(-c3ccc(F)cc3)nc3occn23)n1 [X, 6-(4-fluorophenyl)-5-[2-(methylsulfanyl)pyrimidin-4-yl]imidazo[2,1-b][1,3]oxazole]	1130 nM		144 to 145 °C	
OCCN(CCO)c1nccc(-c2c(-c3ccc(F)cc3)nc3occn23)n1 [XCIII]	120 nM	457 nM		
Fc1ccc(CNc2nccc(-c3c(-c4ccc(F)cc4)nc4occn34)n2)cc1 [XCIV]	90.9 nM	394 nM		
Fc1ccc(-c2nc3occn3c2-c2ccnc(N3CCOCC3)n2)cc1 [XCIX]	71.1 nM	854 nM		
NCCCNc1nccc(-c2c(-c3ccc(F)cc3)nc3occn23)n1 [XCI]	49.9 nM	188 nM		
OC1CCN(c2nccc(-c3c(-c4ccc(F)cc4)nc4occn34)n2)CC1 [XCVIII]	134 nM	951 nM		
OCCNc1nccc(-c2c(-c3ccc(F)cc3)nc3occn23)n1 [XIV]	41.6 nM	338 nM		
N#CCCNc1nccc(-c2c(-c3ccc(F)cc3)nc3occn23)n1 [XIX]	100 nM	1140 nM		
Fc1ccc(-c2nc3occn3c2-c2ccnc(NC[C@@H]3CCCO3)n2)cc1 [XLII]	80.8 nM	11.2 nM		
Fc1ccc(-c2nc3occn3c2-c2ccnc(NCc3ccccn3)n2)cc1 [XLVIII]	74 nM	96.8 nM		
OCCOCCNc1nccc(-c2c(-c3ccc(F)cc3)nc3occn23)n1 [XL]	79 nM	93 nM		
CC(O)CNc1nccc(-c2c(-c3ccc(F)cc3)nc3occn23)n1 (centres unmarked) [XVI]	37.1 nM			19.3 nM
CN(C)CCNc1nccc(-c2c(-c3ccc(F)cc3)nc3occn23)n1 [XXVI]	480 nM	100 nM		
OCC(O)CNc1nccc(-c2c(-c3ccc(F)cc3)nc3occn23)n1 (centres unmarked) [XXXIII]	143 nM	57 nM		
CN(C)CCCNc1nccc(-c2c(-c3ccc(F)cc3)nc3occn23)n1 [XXXVIII]	343 nM	168 nM		
Cc1ccc(CNc2nccc(-c3c(-c4ccc(F)cc4)nc4occn34)n2)o1 [XXXVI]	103 nM	76.6 nM		

These reach a lower IC50 [1]. Values come first.

IC50 [1]	IC50 ([2]; Homo sapiens, THP-1, 18 h)	melting point	IC50 [2]	SMILES
33.4 nM	177 nM			O=C1CCCN1CCCNc1nccc(-c2c(-c3ccc(F)cc3)nc3occn23)n1 [LXVII]
6.72 nM	41.2 nM			C[C@@H](Nc1nccc(-c2c(-c3ccc(F)cc3)nc3occn23)n1)[C@@H](O)c1ccc(O)cc1 [LXXVI]
5.09 nM	26.6 nM			Oc1cccc(C(O)CNc2nccc(-c3c(-c4ccc(F)cc4)nc4occn34)n2)c1 (centres unmarked) [LXXV]
3.33 nM	12.2 nM			CCOC(=O)N1CCC(Nc2nccc(-c3c(-c4ccc(F)cc4)nc4occn34)n2)CC1 [LXX]
20.5 nM	69.7 nM			CCCCC(CO)Nc1nccc(-c2c(-c3ccc(F)cc3)nc3occn23)n1 (centres unmarked) [LX]
1.41 nM	12.1 nM			COCCCNc1nccc(-c2c(-c3ccc(F)cc3)nc3occn23)n1 [XCVII]
3.42 nM	18 nM			CCNc1nccc(-c2c(-c3ccc(F)cc3)nc3occn23)n1 [XCV]
16.7 nM	11.8 nM			CC(C)[C@@H](CO)Nc1nccc(-c2c(-c3ccc(F)cc3)nc3occn23)n1 [XII]
1.56 nM	13.5 nM			CCOCCCNc1nccc(-c2c(-c3ccc(F)cc3)nc3occn23)n1 [XLIII]
10.5 nM	34.5 nM			CCSCCNc1nccc(-c2c(-c3ccc(F)cc3)nc3occn23)n1 [XLIV]
5.87 nM	20 nM			Fc1ccc(-c2nc3occn3c2-c2ccnc(NCc3cccs3)n2)cc1 [XLIX]
1.75 nM			49.2 nM	CC(CO)Nc1nccc(-c2c(-c3ccc(F)cc3)nc3occn23)n1 (centres unmarked) [XLI]
31.4 nM	13.7 nM			C[C@@H](CO)CCNc1nccc(-c2c(-c3ccc(F)cc3)nc3occn23)n1 [XLVII]
23.1 nM	17.2 nM			OCCCCCNc1nccc(-c2c(-c3ccc(F)cc3)nc3occn23)n1 [XLVI]
11.7 nM	11.2 nM			Fc1ccc(-c2nc3occn3c2-c2ccnc(NC[C@H]3CCCO3)n2)cc1 [XLV]
0.44 nM	11.2 nM			Fc1ccc(-c2nc3occn3c2-c2ccnc(NC3CC3)n2)cc1 [XVIII]
15.7 nM	15.9 nM			CCC(O)CNc1nccc(-c2c(-c3ccc(F)cc3)nc3occn23)n1 (centres unmarked) [XVII]

IC50 [1]	IC50 ([2]; Homo sapiens, THP-1, 18 h)	melting point	IC50 [2]	SMILES
30.7 nM	18.8 nM			CC(O)CNc1nccc(-c2c(-c3ccc(F)cc3)nc3occn23)n1 (centres unmarked) [XV]
11.9 nM	9.08 nM			C=CCNc1nccc(-c2c(-c3ccc(F)cc3)nc3occn23)n1 [XXIII]
3.7 nM	18.6 nM			CC[C@@H](CO)Nc1nccc(-c2c(-c3ccc(F)cc3)nc3occn23)n1 [XXII]
15 nM	1.78 nM			Fc1ccc(-c2nc3occn3c2-c2ccnc(NC3CCC3)n2)cc1 [XXIV]
4.28 nM	4.45 nM			Fc1ccc(-c2nc3occn3c2-c2ccnc(NCC3CC3)n2)cc1 [XXIX]
6.86 nM	13.9 nM			C[C@H](O)CNc1nccc(-c2c(-c3ccc(F)cc3)nc3occn23)n1 [XXI]
3.47 nM	15.3 nM			CCCNc1nccc(-c2c(-c3ccc(F)cc3)nc3occn23)n1 [XXVIII]
20.5 nM	6.08 nM			CC[C@H](CO)Nc1nccc(-c2c(-c3ccc(F)cc3)nc3occn23)n1 [XXVII]
21.5 nM	466 nM			OCCCNc1nccc(-c2c(-c3ccc(F)cc3)nc3occn23)n1 [XXV]
19 nM	4.89 nM			COC[C@H](C)Nc1nccc(-c2c(-c3ccc(F)cc3)nc3occn23)n1 [XXXII]
2.19 nM	19.7 nM			CCCC(CO)Nc1nccc(-c2c(-c3ccc(F)cc3)nc3occn23)n1 (centres unmarked) [XXXIV]
1.6 nM	10.3 nM			COCC(C)Nc1nccc(-c2c(-c3ccc(F)cc3)nc3occn23)n1 (centres unmarked) [XXXI]
5.95 nM	21.5 nM			Fc1ccc(-c2nc3occn3c2-c2ccnc(NCc3ccco3)n2)cc1 [XXXVII]
17.9 nM	17.9 nM			CC(CO)CCNc1nccc(-c2c(-c3ccc(F)cc3)nc3occn23)n1 (centres unmarked) [XXXV]
34.8 nM			12.3 nM	CC(CO)Nc1nccc(-c2c(-c3ccc(F)cc3)nc3occn23)n1 (centres unmarked) [XXX]
24.3 nM	65 nM			COCCNc1nccc(-c2c(-c3ccc(F)cc3)nc3occn23)n1 [XX]
